Laboratory results reported in PubChem BioAssay (NCI).
Several values for one entry are separate records, joined by “and”; a condition that tells them apart may be missing. Equal entries are not always repeated.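 Five compound concentrations were applied to cells in 96-well plates for 48 hours; endpoints were derived by simple linear interpolation of the resulting dose-response curve. At the GI50, growth is halved. Definition used: TGI = concentration required for complete inhibition of growth.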

Legend:
Assay in all cases: DTP human tumour cell line panel, 48 h
UACC-62 melanoma = tested on: UACC-62 melanoma
MDA-MB-231 breast = tested on: MDA-MB-231 breast
SF-539 CNS = tested on: SF-539 CNS
MOLT-4 leukemia = tested on: MOLT-4 leukemia
LOX IMVI melanoma = tested on: LOX IMVI melanoma
HCT-116 colon = tested on: HCT-116 colon
A549 NSCLC = tested on: A549 NSCLC
ACHN renal = tested on: ACHN renal
UO-31 renal = tested on: UO-31 renal
HOP-62 NSCLC = tested on: HOP-62 NSCLC
KM12 colon = tested on: KM12 colon
A498 renal = tested on: A498 renal
SF-268 CNS = tested on: SF-268 CNS
HL-60(TB) leukemia = tested on: HL-60(TB) leukemia
OVCAR-8 ovarian = tested on: OVCAR-8 ovarian
SK-OV-3 ovarian = tested on: SK-OV-3 ovarian
SN12C renal = tested on: SN12C renal
RXF 393 renal = tested on: RXF 393 renal
OVCAR-3 ovarian = tested on: OVCAR-3 ovarian
CCRF-CEM leukemia = tested on: CCRF-CEM leukemia
M14 melanoma = tested on: M14 melanoma
NCI/ADR-RES ovarian = tested on: NCI/ADR-RES ovarian
NCI-H460 lung = tested on: NCI-H460 lung
HS 578T breast = tested on: HS 578T breast
NCI-H23 lung = tested on: NCI-H23 lung
NCI-H522 lung = tested on: NCI-H522 lung
SNB-19 CNS = tested on: SNB-19 CNS
SF-295 CNS = tested on: SF-295 CNS
HCC-2998 colon = tested on: HCC-2998 colon
HCT-15 colon = tested on: HCT-15 colon
EKVX NSCLC = tested on: EKVX NSCLC
BT-549 breast = tested on: BT-549 breast
SK-MEL-28 melanoma = tested on: SK-MEL-28 melanoma
TK-10 renal = tested on: TK-10 renal
RPMI-8226 leukemia = tested on: RPMI-8226 leukemia
NCI-H226 lung = tested on: NCI-H226 lung
COLO 205 colon = tested on: COLO 205 colon
OVCAR-5 ovarian = tested on: OVCAR-5 ovarian
HT29 colon = tested on: HT29 colon
SK-MEL-2 melanoma = tested on: SK-MEL-2 melanoma
MDA-MB-435 = tested on: MDA-MB-435
SK-MEL-5 melanoma = tested on: SK-MEL-5 melanoma
OVCAR-4 ovarian = tested on: OVCAR-4 ovarian
IGROV1 ovarian = tested on: IGROV1 ovarian
MCF7 breast = tested on: MCF7 breast
K-562 leukemia = tested on: K-562 leukemia
HOP-92 NSCLC = tested on: HOP-92 NSCLC
U251 CNS = tested on: U251 CNS
SW-620 colon = tested on: SW-620 colon
PC-3 prostate = tested on: PC-3 prostate
DU-145 prostate = tested on: DU-145 prostate
SR leukemia = tested on: SR leukemia
786-0 renal = tested on: 786-0 renal
SNB-75 CNS = tested on: SNB-75 CNS
UACC-257 melanoma = tested on: UACC-257 melanoma

SMILES: COC(=O)C1CCC(NC(=O)c2csc([C@@H](C[C@H](C(C)C)N(C)C(=O)[C@@H](NC(=O)[C@H]3CCCCN3C)C(C)C)OC(C)=O)n2)CC1 (some centres not stated)
- GI50 (UACC-62 melanoma): 3.82 nM and 15.7 nM
- TGI (UACC-62 melanoma): > 33300 nM
- GI50 (MDA-MB-231 breast): 8.63 nM and 24 nM
- GI50 (SF-539 CNS): 3.94 nM and 12.7 nM
- TGI (SF-539 CNS): 63.7 nM and 151 nM
- GI50 (MOLT-4 leukemia): 5.74 nM and 14.9 nM
- TGI (MOLT-4 leukemia): > 33300 nM
- GI50 (LOX IMVI melanoma): 6.44 nM and 16.4 nM
- TGI (LOX IMVI melanoma): > 33300 nM
- GI50 (HCT-116 colon): 4.01 nM
- GI50 (A549 NSCLC): 8.59 nM and 21 nM
- TGI (A549 NSCLC): > 33300 nM
- GI50 (ACHN renal): 279 nM
- TGI (ACHN renal): > 33300 nM
- GI50 (UO-31 renal): 68.4 nM and 303 nM
- TGI (UO-31 renal): > 33300 nM
- GI50 (HOP-62 NSCLC): 5.19 nM and 16 nM
- TGI (HOP-62 NSCLC): > 33300 nM
- GI50 (KM12 colon): 4.98 nM and 14 nM
- TGI (KM12 colon): > 33300 nM
- GI50 (A498 renal): 6.8 nM and 12.6 nM
- TGI (A498 renal): 127 nM
- GI50 (SF-268 CNS): 9.2 nM and 19.7 nM
- TGI (SF-268 CNS): > 33300 nM
- GI50 (HL-60(TB) leukemia): 3 nM and 7.35 nM
- TGI (HL-60(TB) leukemia): 13.6 nM and 18.1 nM
- GI50 (OVCAR-8 ovarian): 11.4 nM and 26.6 nM
- TGI (OVCAR-8 ovarian): > 33300 nM
- GI50 (SK-OV-3 ovarian): 4.5 nM and 14.8 nM
- TGI (SK-OV-3 ovarian): > 33300 nM
- GI50 (SN12C renal): 6.74 nM and 22.5 nM
- TGI (SN12C renal): > 33300 nM
- GI50 (RXF 393 renal): 9.23 nM
- TGI (RXF 393 renal): > 33300 nM
- GI50 (OVCAR-3 ovarian): 3.59 nM and 9.35 nM
- TGI (OVCAR-3 ovarian): 29.4 nM
- GI50 (CCRF-CEM leukemia): 4.07 nM and 10.7 nM
- TGI (CCRF-CEM leukemia): > 33300 nM
- GI50 (M14 melanoma): 5.7 nM and 5.52 nM
- TGI (M14 melanoma): 16.3 nM
- GI50 (NCI/ADR-RES ovarian): 106 nM and 258 nM
- TGI (NCI/ADR-RES ovarian): > 33300 nM
- GI50 (NCI-H460 lung): 3.72 nM and 12 nM
- TGI (NCI-H460 lung): > 33300 nM
- GI50 (HS 578T breast): 4.29 nM and 11.1 nM
- TGI (HS 578T breast): > 33300 nM
- GI50 (NCI-H23 lung): 34.3 nM and 21.7 nM
- TGI (NCI-H23 lung): > 33300 nM
- GI50 (NCI-H522 lung): 1.38 nM and 3.33 nM
- TGI (NCI-H522 lung): 5.9 nM and 10.7 nM
- GI50 (SNB-19 CNS): 4.7 nM and 15.2 nM
- TGI (SNB-19 CNS): > 33300 nM
- GI50 (SF-295 CNS): 4.23 nM and 14.6 nM
- TGI (SF-295 CNS): > 33300 nM
- GI50 (HCC-2998 colon): 32.5 nM and 99.4 nM
- TGI (HCC-2998 colon): > 33300 nM
- GI50 (HCT-15 colon): 18.5 nM and 53.6 nM
- TGI (HCT-15 colon): > 33300 nM
- GI50 (EKVX NSCLC): 15.2 nM and 38.5 nM
- TGI (EKVX NSCLC): > 33300 nM
- GI50 (BT-549 breast): 9.9 nM and 20 nM
- TGI (BT-549 breast): 791 nM and 225 nM
- GI50 (SK-MEL-28 melanoma): > 33300 nM
- TGI (SK-MEL-28 melanoma): > 33300 nM
- GI50 (TK-10 renal): 1050 nM
- TGI (TK-10 renal): > 33300 nM
- GI50 (RPMI-8226 leukemia): 4.98 nM and 14.9 nM
- TGI (RPMI-8226 leukemia): > 33300 nM
- GI50 (NCI-H226 lung): 12.6 nM and 31.7 nM
- TGI (NCI-H226 lung): > 33300 nM
- GI50 (COLO 205 colon): 3.59 nM and 12.1 nM
- TGI (COLO 205 colon): 14.1 nM and 78.4 nM
- GI50 (OVCAR-5 ovarian): 11.2 nM and 21.2 nM
- TGI (OVCAR-5 ovarian): > 33300 nM
- GI50 (HT29 colon): 3.43 nM and 10.4 nM
- TGI (HT29 colon): 4200 nM
- GI50 (SK-MEL-2 melanoma): 7.62 nM and 10.9 nM
- TGI (SK-MEL-2 melanoma): > 33300 nM
- GI50 (MDA-MB-435): 0.404 nM and 3.33 nM
- TGI (MDA-MB-435): 2.65 nM and 8.57 nM
- GI50 (SK-MEL-5 melanoma): 3.26 nM and 10.8 nM
- TGI (SK-MEL-5 melanoma): 118 nM and 348 nM
- TGI (OVCAR-4 ovarian): > 33300 nM
- GI50 (IGROV1 ovarian): 11.5 nM and 30.5 nM
- TGI (IGROV1 ovarian): > 33300 nM
- GI50 (MCF7 breast): 3.09 nM and 12.1 nM
- TGI (MCF7 breast): > 33300 nM
- GI50 (K-562 leukemia): 2.56 nM and 7.66 nM
- TGI (K-562 leukemia): > 33300 nM
- GI50 (HOP-92 NSCLC): 15.3 nM
- TGI (HOP-92 NSCLC): 6730 nM
- GI50 (U251 CNS): 4.99 nM and 15.4 nM
- TGI (U251 CNS): > 33300 nM
- GI50 (SW-620 colon): 4.53 nM and 14.9 nM
- TGI (SW-620 colon): > 33300 nM
- GI50 (PC-3 prostate): 8.4 nM and 16.8 nM
- TGI (PC-3 prostate): > 33300 nM
- GI50 (DU-145 prostate): 4.06 nM and 9.67 nM
- TGI (DU-145 prostate): 28.9 nM
- GI50 (SR leukemia): 2.12 nM and 3.33 nM
- TGI (SR leukemia): > 33300 nM
- GI50 (786-0 renal): 7.42 nM and 14 nM
- TGI (786-0 renal): > 33300 nM
- GI50 (SNB-75 CNS): 3.07 nM and 11.9 nM
- TGI (SNB-75 CNS): > 33300 nM
- GI50 (UACC-257 melanoma): > 33300 nM
- TGI (UACC-257 melanoma): > 33300 nM
